Target: interaction between p53 and MDM2 proteins (Homo sapiens, UniProt Q00987)
Experiment: HTRF assay of inhibition of the p53-MDM2 interaction (GST-MDM2 / biotinylated p53 peptide)
Format: binding
Settings: recombinant GST-tagged MDM2 and biotinylated p53 peptide, 0.02% BSA
Procedure: In a […], the ability of the compounds to inhibit the interaction between p53 and MDM2 proteins was measured. The ability of the compounds to inhibit the interaction between p53 and MDM2 proteins was measured by an HTRF (homogeneous time-resolved fluorescence) assay in which recombinant GST-tagged MDM2 binds to a peptide that resembles the MDM2-interacting region of p53 (Lane et al.). Binding of GST-MDM2 protein and p53-peptide (biotinylated on its N-terminal end) is registered by the FRET (fluorescence resonance energy transfer) between Europium (Eu)-labeled anti-GST antibody and streptavidin-conjugated Allophycocyanin (APC). […]

interaction between p53 and MDM2 proteins, sequence (Q00987 whole entry): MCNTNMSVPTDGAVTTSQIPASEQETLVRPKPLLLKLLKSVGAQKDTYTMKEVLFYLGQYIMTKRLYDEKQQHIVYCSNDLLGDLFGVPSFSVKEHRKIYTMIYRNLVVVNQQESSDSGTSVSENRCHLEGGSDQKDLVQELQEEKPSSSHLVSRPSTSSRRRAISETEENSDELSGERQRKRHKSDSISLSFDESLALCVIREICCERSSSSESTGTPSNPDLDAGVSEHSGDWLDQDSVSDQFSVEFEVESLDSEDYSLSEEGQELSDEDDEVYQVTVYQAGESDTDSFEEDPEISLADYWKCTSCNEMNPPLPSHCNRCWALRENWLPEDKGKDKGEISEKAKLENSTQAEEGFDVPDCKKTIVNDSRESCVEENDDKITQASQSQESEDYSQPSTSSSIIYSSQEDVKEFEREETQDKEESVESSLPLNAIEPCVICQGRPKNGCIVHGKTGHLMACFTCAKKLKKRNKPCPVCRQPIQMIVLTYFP

IC50 [nM]	Structure (SMILES)
3.73	O=C1Nc2cc(Cl)ccc2C1(Cc1cccc(Cl)c1)Nc1ccc(Br)cc1F (racemic) [Example 11, rac-3-(4-bromo-2-fluoro-phenylamino)-6-chloro-3-(3-chloro-benzyl)-1,3-dihydro-indol-2-one]
2.56	O=C1Nc2cc(Cl)ccc2C1(Cc1cccc(Cl)c1)Nc1cccc(OC(F)F)c1 (racemic) [Example 19, rac-6-chloro-3-(3-chloro-benzyl)-3-(3-difluoromethoxy-phenylamino)-1,3-dihydro-indol-2-one]
2.54	O=C1Nc2cc(Cl)ccc2C1(Cc1cccc(Cl)c1)NC1CCC1 (racemic) [Example 49, rac-6-chloro-3-(3-chloro-benzyl)-3-cyclobutylamino-1,3-dihydro-indol-2-one]
3.68	O=C1Nc2cc(Cl)ccc2C1(Cc1cccc(Cl)c1)N1CCCC(O)C1 (racemic) [Example 62, rac-6-chloro-3-(3-chloro-benzyl)-3-(3-hydroxy-piperidin-1-yl)-1,3-dihydro-indol-2-one]

— US8058269B2, “Oxindole derivatives” (Hoffman-La Roche Inc., priority 2006, dated 2011)
